Literature values as cited in patent publication US20090087487A1, “Paliperidone sustained release formulation” (priority 2007, published 2009).

solubility in 0.1 N hydrochloric acid (0.1 N hydrochloric acid): soluble
solubility in methanol (methanol): soluble
solubility in methylene chloride (methylene chloride): freely soluble
solubility in water (water): practically insoluble
Compound: Cc1nc2n(c(=O)c1CCN1CCC(c3noc4cc(F)ccc34)CC1)CCCC2O (stereo not shown) [Paliperidone, 4H-Pyrido[1,2-a]pyrimidin-4-one, 3-[2-[4-(6-fluoro-1,2-benzisoxazol-3-yl)-1-piperidinyl]ethyl]-6,7,8,9-tetrahydro-9-hydroxy-2-methyl]
